# Measured values as given in paper PMC11974928 (bioRxiv, 2025).
# System: GL261 cells
# Assay: Orthotopic GL261 allograft survival
# Assay type: in vivo, mouse
# Details: C57BL/6, 25 mg/kg 3x weekly, compared to vehicle
smiles,measurement,value
CCN1CCN(Cc2ccc(Nc3ncc(F)c(-c4cc(F)c5nc(C)n(C(C)C)c5c4)n3)nc2)CC1 [Abemaciclib],overall survival of glioma-bearing mice,effective
